# Patent publication US20070099822A1, “Regulation of tissue mineralization and phosphate metabolism by asarm peptides” (priority 2003, published 2007)
# Biological target: anti-ASARM-peptide polyclonal
# Experiment: Competitive ELISA, biotinylated against non-biotinylated ASARM-peptide
# Assay type: binding, Rabbit
# Settings: 0.5 ng/mL biotinylated ASARM-peptide
# Excerpt: MEPE ASARM-peptide (phosphorylated and non-phosphorylated) & polyclonal antibodies. The carboxy terminal region of MEPE containing residues 507-525 were synthesized using routine techniques by multiple peptide cloning systems (Multiple Peptide Systems, San Diego, Calif.). For ELISA studies, both phosphorylated and non-phosphorylated peptides were synthesized. The phosphorylated-form of the peptide (NH2—RDDSSESSDSG(Sp)S(Sp)E(Sp)DGD-COOH; SEQ ID NO. 14) was biotinylated using a Pierce EZ-Link Sulfo-NHS-LC-Biotinylation Kit (Pierce & Co, Rockford, Ill.) and the peptide de-salted using an Amersham Biosciences PD-10 Desalting column (Amersham Biosciences, Piscataway, N.J.). […] Rabbit polyclonal antibodies raised against ASARM-peptide NH2-[…]-COOH (SEQ ID NO. 5) were used in these studies and have been previously described (Rowe, et al., Bone 34:303-319, 2004). Pre-immune sera from the same rabbits were used as negative controls.
# ELISA Assay. A new enzyme-linked-immunosorbent-assay (ELISA) was designed to specifically quantitate ASARM-peptide(s) in sera from humans and mice. […]
substance,measurement,value
H-CFSSRRRDDSSESSDSGSSSESDGD-OH [ASARM-peptide],KD of quenching in competitive ELISA,7.5 ng/mL
same,Qmax (quench maximum),98.7%
